This test concerns the target T1, NEDD8-activating enzyme (NAE), Uba3 subunit (Homo sapiens, UniProt Q8TBC4).
T1 construct: His-APP-BP1, His-Uba3 (kit enzymes); with APPBP1 (NAE1); Ubc12 and NEDD8 present in the assay
The test is described as follows: in vitro NEDD8 conjugation assay with purified E1 (APPBP1/Uba3), Ubc12 and NEDD8; non-reducing western blot of Ubc12-NEDD8. In kind it is biochemical.

T1 sequence (Q8TBC4 2-463): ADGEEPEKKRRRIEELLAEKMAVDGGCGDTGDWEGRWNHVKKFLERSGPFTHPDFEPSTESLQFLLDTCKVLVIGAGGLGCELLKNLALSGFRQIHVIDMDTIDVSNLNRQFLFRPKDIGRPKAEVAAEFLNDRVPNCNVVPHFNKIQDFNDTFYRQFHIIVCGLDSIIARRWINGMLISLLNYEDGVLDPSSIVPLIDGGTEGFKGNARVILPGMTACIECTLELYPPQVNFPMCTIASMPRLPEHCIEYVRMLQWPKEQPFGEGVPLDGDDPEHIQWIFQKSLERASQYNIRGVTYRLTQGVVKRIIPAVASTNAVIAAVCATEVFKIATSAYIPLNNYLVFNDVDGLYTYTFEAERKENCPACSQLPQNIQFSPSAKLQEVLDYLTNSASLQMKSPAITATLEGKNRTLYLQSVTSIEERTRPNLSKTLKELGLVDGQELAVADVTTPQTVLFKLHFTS
T1 sequence (Q13564 2-534 partner): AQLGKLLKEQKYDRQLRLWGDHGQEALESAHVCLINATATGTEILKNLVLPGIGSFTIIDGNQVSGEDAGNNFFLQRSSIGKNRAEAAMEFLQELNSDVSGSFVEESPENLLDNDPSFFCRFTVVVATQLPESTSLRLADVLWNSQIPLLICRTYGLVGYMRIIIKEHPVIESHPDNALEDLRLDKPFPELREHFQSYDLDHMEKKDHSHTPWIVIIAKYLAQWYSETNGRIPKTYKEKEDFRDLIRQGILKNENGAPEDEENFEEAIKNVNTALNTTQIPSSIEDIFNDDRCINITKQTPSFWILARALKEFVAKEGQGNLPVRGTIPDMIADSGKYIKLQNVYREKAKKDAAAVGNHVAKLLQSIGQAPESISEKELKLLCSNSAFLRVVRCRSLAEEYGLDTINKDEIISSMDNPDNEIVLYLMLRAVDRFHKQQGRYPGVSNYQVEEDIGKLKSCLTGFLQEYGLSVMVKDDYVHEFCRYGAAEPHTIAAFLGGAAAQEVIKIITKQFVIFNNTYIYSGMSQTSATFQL
T1 sequence (P61081 whole entry partner): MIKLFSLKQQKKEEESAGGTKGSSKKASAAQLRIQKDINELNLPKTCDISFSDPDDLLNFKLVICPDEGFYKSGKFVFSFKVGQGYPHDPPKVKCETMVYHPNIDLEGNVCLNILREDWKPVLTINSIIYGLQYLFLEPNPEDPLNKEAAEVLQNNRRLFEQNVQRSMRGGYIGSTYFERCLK
T1 sequence (Q15843 1-76 partner): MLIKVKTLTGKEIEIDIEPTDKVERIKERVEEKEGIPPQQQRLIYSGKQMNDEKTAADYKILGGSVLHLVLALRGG

Take `COc1ccc(/C=C/C(=O)c2c(O)cc(OC)cc2OC)cc1` [FKA, flavokawain A]: the IC50 (usually the concentration that inhibits the measured activity by half) was roughly 5 µM.

The values above are taken from PMC4747190, “Flavokawain A induces deNEDDylation and Skp2 degradation leading to inhibition of tumorigenesis and cancer progression in the TRAMP transgenic mouse model” (Oncotarget, 2015).
